28 compounds from PubChem BioAssay (NCI) can be followed below.

Each structure is given as a SMILES string.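 Assay format: 96-well plates, 48-hour exposure. Abbreviation: GI50, concentration required for 50% inhibition of growth. TGI marks complete inhibition of growth.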

The experiment deals with MDA-MB-468 breast. Briefly: NCI tumour cell line growth inhibition, 48 h.
In the case of `COc1ccc(C(=O)n2nc(/C=C/c3ccc(O)c(OC)c3)cc2/C=C/c2ccc(O)c(OC)c2)cc1`, the GI50 was 370 nM and the TGI stood at 2000 nM.

For the compound `CCc1c2c(nc3ccc(OC(=O)NCc4ccc(B5OC(C)(C)C(C)(C)O5)cc4)cc13)-c1cc3c(c(=O)n1C2)COC(=O)[C@]3(O)CC`, the GI50 was < 12.6 nM and the TGI was found to be 89.4 nM.

For the compound `Cc1cc(C(=O)NC(C)(C)C)cc(C#Cc2ccc3c4c(oc3c2)C(C)(C)c2cc(NS(C)(=O)=O)ccc2C4=O)n1`, the GI50 is 3180 nM and the TGI was > 100000 nM.

Regarding `Cc1ccc(NCCN2CCCCC2)c2c(=O)c3ccccc3sc12`, the GI50 is 2380 nM and the TGI amounted to 5190 nM.

As to `Oc1ccccc1N=Cc1c(O)ccc2ccccc12`, the GI50 was 7090 nM and the TGI worked out at 29500 nM.

Regarding `CC(C)CCC[C@@H](C)[C@H]1CCC2C3=CCn4c(=O)ccc(=O)n4C3CC[C@@]21C` (stereo not given in full), the GI50 was 887 nM and the TGI is 2980 nM.

In the case of `Clc1ccc(N2CCN(CCCN3CCN(c4cccc(Cl)c4)CC3)CC2)cc1`, the GI50 was 1630 nM and the TGI is 10800 nM.

On to `O=C(Nc1ccc(Cl)cc1)Nc1ccc(Oc2nncc3ccccc23)cc1`, for which the GI50 was 752 nM and the TGI worked out at 2520 nM.

With `CS(=O)(=O)Nc1ccc(Nc2c3ccccc3nc3cc(N)ccc23)cc1`, the GI50 is 106 nM and the TGI was 973 nM.

In the case of `CCN(CC)CCNC(=O)c1cn2ncnc(Oc3ccc(NC(=O)Nc4ccc(Cl)c(C(F)(F)F)c4)cc3)c2c1C`, the GI50 is 1670 nM and the TGI came to 3290 nM.

For the compound `Cc1cc(C)c(C#N)c(SCC(=O)c2sc3c(C#N)c(C)cc(C)[n+]3c2[O-])n1`, the GI50 was 266 nM.

Take `O=C1c2ccccc2C(=O)c2c1ccc(C(Br)Br)c2Cl`: the GI50 was 2000 nM and the TGI was found to be 4540 nM.

Regarding `O=C1/C(=C/c2ccc(O)c(O)c2)COc2ccc(-c3ccccc3)cc21`, the GI50 was 731 nM and the TGI stood at 2640 nM.

Consider `CCN(CC)CCOc1nc2c3ccc(Cl)cc3nn2c2ccccc12`, for which the GI50 is 1510 nM and the TGI came to 3570 nM.

As for `Cc1ccc(-c2cc3c(NC(=O)C4CC4)ncnc3o2)cc1`, the GI50 was > 25000 nM and the TGI is > 25000 nM.

`COC(=O)C1CCC(NC(=O)c2csc([C@@H](C[C@H](C(C)C)N(C)C(=O)[C@@H](NC(=O)[C@H]3CCCCN3C)C(C)C)OC(C)=O)n2)CC1` (stereo not given in full): the GI50 is 2.45 nM and the TGI stood at 6.83 nM.

Regarding `O=C(COc1cccc(/C=C2/Oc3ccccc3C2=O)c1)Nc1nccs1`, the GI50 is 2160 nM and the TGI was determined as 9070 nM.

Take `CN1C(=O)N(C)C2C1NN=c1s/c(=C\c3ccccc3F)c(=O)n12` (stereo not given): the GI50 is 211 nM and the TGI is > 100000 nM.

On to `COc1cc(-c2cc(/C=C/C(=O)c3ccc(N)cc3)[nH]n2)cc(OC)c1OC`, for which the GI50 was 1010 nM and the TGI was 2910 nM.

In the case of `CCOC(=O)C1=C(N)CCC1C` (stereo not given), the GI50 was > 100000 nM and the TGI is > 100000 nM.

For the compound `CSCCC(NC(=O)CNC(=O)C(CC(=O)O)NC(=O)C(NC(=O)C(NC(=O)C(NC(=O)CNC(=O)C(CCC(N)=O)NC(=O)C(CCSC)NC(=O)C(CC(=O)O)NC(=O)C(C)NC(=O)C(C)NC(=O)C(NC(=O)C(CO)NC(=O)C(N)CC(C)C)C(C)O)C(C)C)C(C)C)C(C)O)C(=O)NC(C)C(=O)NC(CO)C(=O)NCC(=O)NC(CC(C)C)C(=O)NC(CC(=O)O)C(=O)NC(CCCCN)C(=O)NC(CC(=O)O)C(=O)NC(Cc1ccc(O)cc1)C(=O)NC(CC(C)C)C(=O)NC(CCCCN)C(=O)N1CCCC1C(=O)NC(CC(=O)O)C(=O)NC(CC(=O)O)C(=O)O` (stereo not given), the GI50 is > 82500 nM and the TGI is > 82500 nM.

On to `CN1CCN(c2ccc(N3Cc4ccccc4OC4=C3C(=O)c3c(O)ccc(O)c3C4=O)cn2)CC1`, for which the GI50 is 229 nM and the TGI amounted to 578 nM.

Turning to `O=C(O[C@H]1CN[C@H](C#Cc2cc3ncnc(Nc4ccc5c(cnn5Cc5ccccc5)c4)c3s2)C1)N1CCOCC1`, the GI50 was 209 nM and the TGI worked out at 2580 nM.

Take `Cn1c2c(c3ccc(-c4ccn[nH]4)cc3c1=O)C(=O)c1ccccc1-2`: the GI50 is 4900 nM and the TGI is > 100000 nM.

`CCOC(=O)c1ccc2[nH]c(O)c(C(=Nc3ccc(N(C)C(=O)CN4CCN(C)CC4)cc3)c3ccccc3)c2c1`: the GI50 is 827 nM and the TGI amounted to 2290 nM.

In the case of `C[C@H](O)CNc1cc(-c2[nH]c3cccnc3c2-c2ccc(F)cc2)ccn1`, the GI50 was 7540 nM and the TGI was > 25000 nM.

In the case of `CN(C)c1ccc(-c2c(NC(C)(C)C)nc3c(OCCc4ccccc4)cccn23)cc1`, the GI50 was 2290 nM and the TGI was 6280 nM.

As to `COc1ccccc1/C=C/C=N/NC1=NC2C(S1)N(C)C(=O)N2C` (stereo not given), the GI50 was 2130 nM and the TGI amounted to 7460 nM.
